Assay results published in ChEMBL document CHEMBL5325424, “Structural design, synthesis, and anti-Trypanosomatidae profile of new Pyridyl-thiazolidinones” (Eur J Med Chem, 2023).
The source made the active and inactive calls. No cut-off for these calls is given here.

How the values were obtained:
[1] = system: Trypanosoma cruzi; test: Antitrypanosomal activity against Trypanosoma cruzi Y trypomastigotes infected in African green monkey Vero cells assessed as parasite growth inhibition incubated for 24 hrs by hemocytometry; format: functional, organism-based
[2] = Selectivity index, ratio of CC50 for mouse RAW264.7 cells to IC50 for Leishmania amazonensis WHOM/00 LTB 0016 promastigotes; format: toxicity; settings: read-out: Ratio CC50/IC50
[3] = Selectivity index, ratio of CC50 for mouse RAW264.7 cells to IC50 for Trypanosoma cruzi Y trypomastigotes infected in African green monkey Vero cells; format: toxicity; settings: read-out: Ratio CC50/IC50
[4] = Selectivity index, ratio of CC50 for mouse RAW264.7 cells to IC50 for Trypanosoma cruzi Tulahuen amastigotes infected in mouse L929 cells; format: toxicity, cell-based; settings: read-out: Ratio CC50/IC50
[5] = system: Trypanosoma cruzi; test: Antitrypanosomal activity against Trypanosoma cruzi Tulahuen amastigotes infected in mouse L929 cells assessed as parasite growth inhibition measured after 7 days by CPRG/Nonidet based assay; format: functional, organism-based; settings: L929, 168 h
[6] = system: Leishmania amazonensis; test: Antileishmanial activity against Leishmania amazonensis WHOM/00 LTB 0016 amastigotes infected in mouse RAW264.7 cells assessed as parasite growth inhibition incubated for 24 hrs by panoptic staining based assay; format: functional, organism-based; settings: WHOM/00 LTB 0016, RAW264.7, 24 h
[7] = system: Leishmania amazonensis; test: Antileishmanial activity against Leishmania amazonensis WHOM/00 LTB 0016 promastigotes assessed as parasite growth inhibition incubated for 72 hrs; format: functional, organism-based; settings: WHOM/00 LTB 0016, 72 h
[8] = Cytotoxicity against mouse RAW264.7 cells incubated for 48 hrs by MTT assay; format: toxicity, cell-based
[9] = Selectivity index, ratio of CC50 for mouse RAW264.7 cells to IC50 for Leishmania amazonensis WHOM/00 LTB 0016 amastigotes infected in mouse RAW264.7 cells; format: toxicity, cell-based; settings: read-out: Ratio CC50/IC50
[10] = system: Splenocyte; test: Immunomodulatory activity in mouse splenocytes assessed as reduction in IL-6 level at 10 ug/ml incubated for 24 hrs by flow cytometry; format: functional, cell-based; settings: dose 10.0 µg/ml

Work on `CC(C)C1S/C(=N/N=C/c2ccccn2)NC1=O` (stereo not given) yielded an IC50 [1] of 43.9 µM, a selectivity ratio [2] of 6.4 and a selectivity ratio [3] of 5.8. It also gave a selectivity ratio [4] of 305, an IC50 [5] of 0.84 µM and an IC50 [6] of 8.77 µM. The IC50 [7] was 40.3 µM, the CC50 at 48 h [8] was 256 µM and the selectivity ratio [9] was 29.2.

For `CC(C)C1S/C(=N/N=C/c2ccccn2)N(C)C1=O` (stereo not given), the IC50 [1] was 11 µM, the selectivity ratio [2] was 13.2 and the selectivity ratio [4] was 355. It also gave an IC50 [5] of 0.75 µM, an IC50 [6] of 18.6 µM and an IC50 [7] of 20.2 µM. For the same molecule, the CC50 at 48 h [8] was 267 µM and the selectivity ratio [9] was 14.3.

For `N/C(S)=N/N=C/c1ccccn1`, the IC50 [1] was 99.8 µM, the selectivity ratio [2] was 0.54 and the selectivity ratio [3] was 0.08. For the same molecule, the selectivity ratio [4] was 5.37, the IC50 [5] was 1.6 µM and the IC50 [6] was 555 µM. It also gave an IC50 [7] of 15.9 µM, a CC50 at 48 h [8] of 8.65 µM and a selectivity ratio [9] of 0.01.

With `C/C(=N\N=C1/SCC(=O)N1C)c1ccccn1` the IC50 [1] was 111 µM, the selectivity ratio [2] was 0.6 and the selectivity ratio [3] was 2.6. It also gave a selectivity ratio [4] of 3.61, an IC50 [5] of 80.5 µM and an IC50 [6] of 80.5 µM. The IC50 [7] was 506 µM, the CC50 at 48 h [8] was 291 µM and the selectivity ratio [9] was 3.61.

Molecule `C/C(=N\N=C1/NC(=O)CS1)c1ccncc1` has an IC50 [1] of 185 µM, a selectivity ratio [2] of 0.3 and a selectivity ratio [3] of 1.5. It also gave a selectivity ratio [4] of 43.8, an IC50 [5] of 6.3 µM and an IC50 [6] of 427 µM. It also gave an IC50 [7] of 854 µM, a CC50 at 48 h [8] of 276 µM and a selectivity ratio [9] of 0.64.

In the case of `C/C(=N\N=C1/SCC(=O)N1C)c1ccncc1`, the IC50 [1] is reported as 403 µM, the selectivity ratio [2] is reported as 0.5 and the selectivity ratio [3] is reported as 1.1. The selectivity ratio [4] was 56.2, the IC50 [5] was 7.59 µM and the IC50 [6] was 403 µM. For the same molecule, the IC50 [7] was 806 µM, the CC50 at 48 h [8] was 426 µM and the selectivity ratio [9] was 1.05.

`C/C(=N\NC(N)=S)c1ccncc1` showed an IC50 [1] of 168 µM, a selectivity ratio [2] of 4.5 and a selectivity ratio [3] of 2.76. It also gave a selectivity ratio [4] of 1.91, an IC50 [5] of 242 µM and an IC50 [6] of 515 µM. For the same molecule, the IC50 [7] was 104 µM, the CC50 at 48 h [8] was 464 µM and the selectivity ratio [9] was 0.9.

`CC1(C)S/C(=N/N=C/c2ccccn2)NC1=O` gave an IC50 [1] of 89.5 µM, a selectivity ratio [2] of 3.7 and a selectivity ratio [3] of 5. The selectivity ratio [4] was 279, the IC50 [5] was 1.61 µM and the IC50 [6] was 403 µM. For the same molecule, the IC50 [7] was 123 µM, the CC50 at 48 h [8] was 449 µM and the selectivity ratio [9] was 1.11.

`O=C1CS/C(=N/N=C/c2ccccn2)N1` gave an IC50 [1] of 11.3 µM, a selectivity ratio [2] of 6 and a selectivity ratio [3] of 42.6. It also gave a selectivity ratio [4] of 59.3, an IC50 [5] of 8.21 µM and an IC50 [6] of 62.8 µM. For the same molecule, the IC50 [7] was 80.6 µM, the CC50 at 48 h [8] was 486 µM and the selectivity ratio [9] was 7.74.

For `C/C(=N\N=C1/NC(=O)C(C(C)C)S1)c1ccncc1` (stereo not given), the IC50 [1] was 362 µM, the selectivity ratio [2] was 0.2 and the selectivity ratio [3] was 0.5. It also gave a selectivity ratio [4] of 2.46, an IC50 [5] of 72.4 µM and an IC50 [6] of 72.4 µM. The IC50 [7] was 724 µM, the CC50 at 48 h [8] was 179 µM and the selectivity ratio [9] was 2.46.

For `CNC(=S)N/N=C(\C)c1ccccn1`, the IC50 [1] was 84.4 µM, the selectivity ratio [2] was 0.1 and the selectivity ratio [3] was 0.08. It also gave a selectivity ratio [4] of 9.75, an IC50 [5] of 0.76 µM and an IC50 [6] of 27.2 µM. For the same molecule, the IC50 [7] was 69.5 µM, the CC50 at 48 h [8] was 7.49 µM and the selectivity ratio [9] was 0.27.

`C/C(=N\N=C1\NC(=O)CS1)c1ccccn1` gave an IC50 [1] of 38 µM, a selectivity ratio [2] of 8.9 and a selectivity ratio [3] of 3.5. For the same molecule, the selectivity ratio [4] was 14.7, the IC50 [5] was 9.15 µM and the IC50 [6] was 241 µM. For the same molecule, the IC50 [7] was 15.1 µM, the CC50 at 48 h [8] was 134 µM and the selectivity ratio [9] was 0.55.

`C/C(=N\N=C1/SCC(=O)N1c1ccccc1)c1ccncc1` showed an IC50 [1] of 322 µM, a selectivity ratio [2] of 0.2 and a selectivity ratio [3] of 0.5. The selectivity ratio [4] was 250, the IC50 [5] was 0.62 µM and the IC50 [6] was 323 µM. The IC50 [7] was 644 µM, the CC50 at 48 h [8] was 155 µM and the selectivity ratio [9] was 0.48.

Work on `O=C1CS/C(=N/N=C/c2ccccn2)N1c1ccccc1` yielded an IC50 [1] of 70.9 µM, a selectivity ratio [2] of 0.1 and a selectivity ratio [3] of 0.9. It also gave a selectivity ratio [4] of 16.2, an IC50 [5] of 3.81 µM and an IC50 [6] of 337 µM. The IC50 [7] was 675 µM, the CC50 at 48 h [8] was 61.9 µM and the selectivity ratio [9] was 0.18.

`CNC(=S)N/N=C/c1ccccn1` showed an IC50 [1] of 2.04 µM, a selectivity ratio [2] of 3.97 and a selectivity ratio [3] of 27. For the same molecule, the selectivity ratio [4] was 9.72, the IC50 [5] was 5.66 µM and the IC50 [6] was 515 µM. It also gave an IC50 [7] of 13.8 µM, a CC50 at 48 h [8] of 55.1 µM and a selectivity ratio [9] of 0.1.

`C/C(=N\N=C1\SC(C(C)C)C(=O)N1c1ccccc1)c1ccncc1` (stereo not given) gave an IC50 [1] of 1.5 µM, a selectivity ratio [2] of 13.2 and a selectivity ratio [3] of 197. For the same molecule, the selectivity ratio [4] was 332, the IC50 [5] was 0.89 µM and the IC50 [6] was 5.7 µM. It also gave an IC50 [7] of 22.4 µM, a CC50 at 48 h [8] of 296 µM and a selectivity ratio [9] of 51.9.

Work on `C/C(=N\N=C1/SCC(=O)N1c1ccccc1)c1ccccn1` yielded an IC50 [1] of 4.2 µM, a selectivity ratio [2] of 0.9 and a selectivity ratio [3] of 53.2. For the same molecule, the selectivity ratio [4] was 25.5, the IC50 [5] was 8.74 µM and the IC50 [6] was 322 µM. It also gave an IC50 [7] of 259 µM, a CC50 at 48 h [8] of 223 µM and a selectivity ratio [9] of 0.69.

In the case of `C/C(=N\N=C1\SC(C(C)C)C(=O)N1C)c1ccncc1` (stereo not given), the IC50 [1] is reported as 344 µM, the selectivity ratio [2] is reported as 0.5 and the selectivity ratio [3] is reported as 1. For the same molecule, the selectivity ratio [4] was 5.17, the IC50 [5] was 68.9 µM and the IC50 [6] was 68.9 µM. The IC50 [7] was 689 µM, the CC50 at 48 h [8] was 356 µM and the selectivity ratio [9] was 5.17.

Work on `CN1C(=O)CS/C1=N/N=C/c1ccccn1` yielded an IC50 [1] of 427 µM, a selectivity ratio [2] of 0.3 and a selectivity ratio [3] of 0.6. The selectivity ratio [4] was 47.1, the IC50 [5] was 5.81 µM and the IC50 [6] was 427 µM. For the same molecule, the IC50 [7] was 854 µM, the CC50 at 48 h [8] was 274 µM and the selectivity ratio [9] was 0.64.

In the case of `CN1C(=O)C(C)(C)S/C1=N/N=C/c1ccccn1`, the IC50 [1] is reported as 53.9 µM, the selectivity ratio [2] is reported as 10.1 and the selectivity ratio [3] is reported as 7.2. It also gave a selectivity ratio [4] of 477, an IC50 [5] of 0.81 µM and an IC50 [6] of 380 µM. It also gave an IC50 [7] of 38.3 µM, a CC50 at 48 h [8] of 387 µM and a selectivity ratio [9] of 1.01.

`C/C(=N\NC(=S)Nc1ccccc1)c1ccncc1` showed an IC50 [1] of 1.27 µM, a selectivity ratio [2] of 17.9 and a selectivity ratio [3] of 583. It also gave a selectivity ratio [4] of 256, an IC50 [5] of 2.88 µM and an IC50 [6] of 370 µM. It also gave an IC50 [7] of 41.4 µM, a CC50 at 48 h [8] of 740 µM and a selectivity ratio [9] of 2.

With `CNC(=S)N/N=C(\C)c1ccncc1` the IC50 [1] was 51.1 µM, the selectivity ratio [2] was 2.43 and the selectivity ratio [3] was 11.1. For the same molecule, the selectivity ratio [4] was 2.4, the IC50 [5] was 235 µM and the IC50 [6] was 481 µM. It also gave an IC50 [7] of 233 µM, a CC50 at 48 h [8] of 567 µM and a selectivity ratio [9] of 1.18.

For `C/C(=N\NC(N)=S)c1ccccn1`, the IC50 [1] was 138 µM, the selectivity ratio [2] was 0.8 and the selectivity ratio [3] was 0.11. The selectivity ratio [4] was 11.6, the IC50 [5] was 1.39 µM and the IC50 [6] was 515 µM. The IC50 [7] was 20 µM, the CC50 at 48 h [8] was 16.1 µM and the selectivity ratio [9] was 0.03.

Work on `C/C(=N\NC(=S)Nc1ccccc1)c1ccccn1` yielded an IC50 [1] of 5.77 µM, a selectivity ratio [2] of 0.13 and a selectivity ratio [3] of 1. For the same molecule, the selectivity ratio [4] was 82.4, the IC50 [5] was 0.07 µM and the IC50 [6] was 85.5 µM. The IC50 [7] was 41.4 µM, the CC50 at 48 h [8] was 5.77 µM and the selectivity ratio [9] was 0.06.

For `CCCCCCCCCCCCCCCCOP(=O)([O-])OCC[N+](C)(C)C` [MILTEFOSINE], the selectivity ratio [2] was 8.79, the Activity [10] was “Active” and the IC50 [6] was 7.08 µM. The IC50 [7] was 15.8 µM and the selectivity ratio [9] was 17.5.
